Biological target: T1, cGAMP binding domain of wild-type (GRR) human STING, residues 155-341 (Homo sapiens, UniProt Q86WV6, H232R)
T1 construct: His-TEV-hSTING (WT); TEV protease cleavage site (N); made in house; host or cells: E. coli BL21 DE3
Experiment: Increase of stability of STING protein against thermal denaturation, Differential Scanning Fluorimetry (DSF)
How it was run: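 3 µM His-tagged protein with 100 uM compound, 5×SYPRO Orange, 2% DMSO in 20 mM Tris, 150 mM NaCl, pH7.5; 15–95 °C ramp in 0.5 °C steps (15 s/cycle). Tm from Boltzmann fit of the dye melt curve, duplicates averaged, repeated if SD>1.5 °C; ΔTm = Tm with compound minus Tm of protein alone.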

T1 sequence (Q86WV6 with tags, fused parts or gaps H232R): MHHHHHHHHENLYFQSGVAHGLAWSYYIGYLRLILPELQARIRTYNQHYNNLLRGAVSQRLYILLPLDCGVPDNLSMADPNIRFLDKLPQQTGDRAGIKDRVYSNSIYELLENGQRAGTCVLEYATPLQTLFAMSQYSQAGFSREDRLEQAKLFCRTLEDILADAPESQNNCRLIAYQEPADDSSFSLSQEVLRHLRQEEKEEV

SMILES | DSF [K]
CCc1nc2nn(C)cc2cc1-c1nc(-c2cccc3nn(C[C@H](F)c4ccc(Cl)cc4)cc23)c(C2CC2)n1C [Example 72, 2-[(2R)-2-(4-chlorophenyl)-2-fluoroethyl]-4-(5-cyclopropyl-2-{6-ethyl-2-methyl-2H-pyrazolo[3,4-b]pyridin-5-yl}-1-methyl-1H-imidazol-4-yl)-2H-indazole] | 30
Cc1c(C(C)C)c(-c2cccc3nn(C[C@H](O)c4ccccc4)cc23)nn1-c1cc2cn(C)nc2nc1C1CCOCC1 [Example 73, (1R)-2-(4-{5-methyl-1-[2-methyl-6-(oxan-4-yl)-2H-pyrazolo[3,4-b]pyridin-5-yl]-4-(propan-2-yl)-1H-pyrazol-3-yl}-2H-indazol-2-yl)-1-phenylethan-1-ol] | 28
CC(C)c1nc2nn(C)cc2cc1-c1nc(-c2cccc3nn(CS(=O)(=O)c4ccccc4)cc23)c(C2CC2)n1C [Example 96, 2-[(Benzenesulfonyl)methyl]-4-{5-cyclopropyl-1-methyl-2-[2-methyl-6-(propan-2-yl)-2H-pyrazolo[3,4-b]pyridin-5-yl]-1H-imidazol-4-yl}-2H-indazole] | 29
CC(C)c1nc2nn(C)cc2cc1-c1nc(-c2cccc3nn(C[C@H](O)c4ccccc4)cc23)c(C2CC2)n1C [Example 97, (1R)-2-(4-{5-Cyclopropyl-1-methyl-2-[2-methyl-6-(propan-2-yl)-2H-pyrazolo[3,4-b]pyridin-5-yl]-1H-imidazol-4-yl}-2H-indazol-2-yl)-1-phenylethan-1-ol] | 31
Cc1nc2nn(CC#N)cc2cc1-n1nc(-c2cccc3nn(C[C@H](O)c4ccccc4)cc23)c(C(C)C)c1C [Example 98, 2-[5-(3-{2-[(2R)-2-hydroxy-2-phenylethyl]-2H-indazol-4-yl}-5-methyl-4-(propan-2-yl)-1H-pyrazol-1-yl)-6-methyl-2H-pyrazolo[3,4-b]pyridin-2-yl]acetonitrile] | 29
CCn1cc2cc(-n3nc(-c4cccc5nn(C[C@H](O)c6ccccc6)cc45)c(C(C)C)c3C)c(C)nc2n1 [Example 100, (1R)-2-[4-(1-{2-ethyl-6-methyl-2H-pyrazolo[3,4-b]pyridin-5-yl}-5-methyl-4-(propan-2-yl)-1H-pyrazol-3-yl)-2H-indazol-2-yl]-1-phenylethan-1-ol] | 28
Cc1c(C(C)C)c(-c2cccc3nn(C[C@H](O)c4ccc(OCCN(C)C)cc4)cc23)nn1-c1cc2cn(C)nc2nc1C1CC1 [Example 101] | 30
Cc1nc2nn(C)cc2cc1-n1nc(-c2cccc3nn(C[C@H](O)c4ccccc4)cc23)c(C(C)C)c1C [Example 102, (1R)-2-[4-(1-{2,6-Dimethyl-2H-pyrazolo[3,4-b]pyridin-5-yl}-5-methyl-4-(propan-2-yl)-1H-pyrazol-3-yl)-2H-indazol-2-yl]-1-phenylethan-1-ol] | 28
Cc1nc2nn(CC(F)F)cc2cc1-n1nc(-c2cccc3nn(C[C@H](O)c4ccccc4)cc23)c(C(C)C)c1C [Example 103, (1R)-2-(4-{1-[2-(2,2-difluoroethyl)-6-methyl-2H-pyrazolo[3,4-b]pyridin-5-yl]-5-methyl-4-(propan-2-yl)-1H-pyrazol-3-yl}-2H-indazol-2-yl)-1-phenylethan-1-ol] | 29
Cn1c(-c2cc3cn(CCC#N)nc3nc2C2CC2)nc(-c2cccc3nn(C[C@H](O)c4ccccc4)cc23)c1C1CC1 [Example 104, 3-[6-cyclopropyl-5-(5-cyclopropyl-4-{2-[(2R)-2-hydroxy-2-phenylethyl]-2H-indazol-4-yl}-1-methyl-1H-imidazol-2-yl)-2H-pyrazolo[3,4-b]pyridin-2-yl]propanenitrile] | 31
Cc1nc2cc(C)c(-n3nc(-c4cccc5nn(C[C@H](O)c6ccccc6)cc45)c(C(C)C)c3C)cc2[nH]1 [Example 105, (1R)-2-{4-[1-(2,5-dimethyl-1H-1,3-benzodiazol-6-yl)-5-methyl-4-(propan-2-yl)-1H-pyrazol-3-yl]-2H-indazol-2-yl}-1-phenylethan-1-ol] | 24
Cc1c(C(C)C)c(-c2cccc3nn(C[C@H](O)c4ccccc4)cc23)nn1-c1cc2cn(C)nc2nc1CO [Example 106, (1R)-2-(4-{1-[6-(hydroxymethyl)-2-methyl-2H-pyrazolo[3,4-b]pyridin-5-yl]-5-methyl-4-(propan-2-yl)-1H-pyrazol-3-yl}-2H-indazol-2-yl)-1-phenylethan-1-ol] | 28
CCc1nc2nn(C)cc2cc1-c1nc(-c2cccc3nn(C[C@H](F)c4ccccc4)cc23)c(C2CC2)n1C [Example 107, 4-(5-cyclopropyl-2-{6-ethyl-2-methyl-2H-pyrazolo[3,4-b]pyridin-5-yl}-1-methyl-1H-imidazol-4-yl)-2-[(2R)-2-fluoro-2-phenylethyl]-2H-indazole] | 31
Cc1nc2nn(C)cc2cc1-n1nc(-c2cccc3nn(C[C@H](OCC(N)=O)c4ccccc4)cc23)c(C(C)C)c1C [Example 108, 2-[(1R) -2-[4-(1-{2,6-dimethyl-2H-pyrazolo[3,4-b]pyridin-5-yl}-5-methyl-4-(propan-2-yl)-1H-pyrazol-3-yl)-2H-indazol-2-yl]-1-phenylethoxy]acetamide] | 27
CC(C)c1c(-c2cccc3nn(C[C@H](O)c4ccccc4)cc23)nc(-c2cc3cn(C)nc3cc2OC(F)(F)F)n1C [Example 109, (1R)-2-(4-{1-methyl-2-[2-methyl-6-(trifluoromethoxy)-2H-indazol-5-yl]-5-(propan-2-yl)-1H-imidazol-4-yl}-2H-indazol-2-yl)-1-phenylethan-1-ol] | 27
Cn1cc2cc(-c3nc(-c4cccc5nn(C[C@H](O)c6ccccc6)cc45)c(C4CC4)n3C)c(C3CC3(F)F)nc2n1 (stereo partly drawn) [Example 110, (1R)-2-(4-{5-cyclopropyl-2-[6-(2,2-difluorocyclopropyl)-2-methyl-2H-pyrazolo[3,4-b]pyridin-5-yl]-1-methyl-1H-imidazol-4-yl}-2H-indazol-2-yl)-1-phenylethan-1-ol] | 29
Cc1c(C(C)C)c(-c2cccc3nn(C[C@H](O)c4ccccc4)cc23)nn1-c1cc2cn(C)nc2nc1C1CCCN1 (stereo partly drawn) [Example 111, (1R)-2-(4-{5-Methyl-1-[2-methyl-6-(pyrrolidin-2-yl)-2H-pyrazolo[3,4-b]pyridin-5-yl]-4-(propan-2-yl)-1H-pyrazol-3-yl}-2H-indazol-2-yl)-1-phenylethan-1-ol] | 24
Cc1c(C(C)C)c(-c2cccc3nn(C[C@H](O)c4ccccc4)cc23)nn1-c1cc2cn(C)nc2nc1CN(C)C [Example 112] | 23
Cc1c(C(C)C)c(-c2cccc3nn(C[C@H](O)c4ccccc4)cc23)nn1-c1cc2cn(C)nc2nc1C(C)(C)C [Example 113, (1R)-2-[4-(1-{6-tert-butyl-2-methyl-2H-pyrazolo[3,4-b]pyridin-5-yl}-5-methyl-4-(propan-2-yl)-1 H-pyrazol-3-yl)-2H-indazol-2-yl]-1-phenylethan-1-ol] | 23
